How the values were obtained:
[1] = test system: PGE2 production in HCA-7 colon cancer cells; assay: PGE2 production assay in IL-1β-treated HCA-7 cells; type: cell-based; details: Homo sapiens, HCA-7, read-out: PGE2 (%): % of inhibition of PGE2 levels in HCA-7 cells, 1 μM concentration; ± SD (n = 3); NR = no observed reduction
COX-2 = target: T1, COX-2 (Homo sapiens, UniProt P35354); assay: COX-2 cell-free assay; details: read-out: COX-2 (%): % of inhibition of COX-2 levels in vitro
T1 sequence (P35354 18-604): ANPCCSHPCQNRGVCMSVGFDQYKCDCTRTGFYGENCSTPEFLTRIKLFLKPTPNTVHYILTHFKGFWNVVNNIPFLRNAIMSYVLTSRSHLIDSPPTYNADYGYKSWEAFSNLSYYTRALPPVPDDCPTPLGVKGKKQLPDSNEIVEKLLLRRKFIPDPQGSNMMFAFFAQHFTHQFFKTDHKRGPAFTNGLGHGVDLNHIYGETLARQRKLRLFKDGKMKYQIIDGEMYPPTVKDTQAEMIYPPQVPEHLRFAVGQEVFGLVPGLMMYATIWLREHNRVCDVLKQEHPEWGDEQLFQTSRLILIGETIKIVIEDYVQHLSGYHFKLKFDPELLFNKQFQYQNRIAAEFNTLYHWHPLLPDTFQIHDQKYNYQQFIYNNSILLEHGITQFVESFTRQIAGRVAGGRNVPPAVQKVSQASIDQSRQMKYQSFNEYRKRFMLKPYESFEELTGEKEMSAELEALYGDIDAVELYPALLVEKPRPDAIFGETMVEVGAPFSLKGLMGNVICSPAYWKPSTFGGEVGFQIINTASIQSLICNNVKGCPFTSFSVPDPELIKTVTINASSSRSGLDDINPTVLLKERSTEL

SMILES: COc1ccc(Nc2nc(-c3ccccc3)c(C(=O)c3ccccc3)s2)cc1 [5c]
- inhibition at 1 µM [1]: < 0%

SMILES: O=C(c1ccccc1)c1sc(Nc2ccc3c(c2)OCO3)nc1-c1ccccc1 [5a]
- inhibition at 1 µM [1]: < 0%

SMILES: Cc1nc(Nc2ccc(Oc3ccccc3)cc2)sc1C(C)O (stereo not drawn) [5l]
- inhibition at 5 µM (COX-2): -16.9 ± 10%

Source: paper PMC3727903 (Bioorganic & medicinal chemistry letters, 2012)
